The text below walks through data of PMC9822400, “The Lipophilic Purine Nucleoside—Tdp1 Inhibitor—Enhances DNA Damage Induced by Topotecan In Vitro and Potentiates the Antitumor Effect of Topotecan In Vivo” (Molecules, 2022).

Entries after “also recorded” stand apart in the source; their conditions may differ. A value given as a limit tells only on which side of the number the result lay.

Data set [1] is described as follows: Cell culture cytotoxicity assay (EZ4U colorimetric test). The class given is cell-based. As to conditions: human, HeLa cells. From the text: (§1) Tdp1 inhibitors are intended to be used in therapeutic cocktails to sensitize tumors to the action of anticancer Top1 poisons. […] To assess the toxicity of the compounds, their effect on the survival of the HeLa cell line (human cervical cancer) was studied using the colorimetric test of metabolic activity of cells EZ4U, which reflects the survival of cells in the presence of the studied compounds. The EZ4U assay is based on the ability of living cells to reduce the colorless tetrazolium salt XTT [sodium 3,3′-{1-(phenylamino)-carbonyl-3,4-tetrazolium) -bis(4-methoxy-6-nitro)-benzene sulfonic acid hydrate] to an orange water-soluble formazan product. This method was used to investigate the intrinsic cytotoxicity of promising inhibitors discovered in the course of this work, as well as the toxicity of their combination with Tpc.
(§2) Cytotoxicity of the compounds was examined on human cell lines HeLa using an EZ4U colorimetric test (Biomedica, Vienna, Austria). The HeLa cell line was obtained from the Russian Cell Culture Collection (RCCC) Institute of Cytology RAS, St. Petersburg, Russia. The cells were grown in DMEM/F12 medium (Gibco, Thermo Fisher Scientific, Waltham, MA, USA), with 1x GlutaMAX (Gibco, Thermo Fisher Scientific, Waltham, MA, USA), 50 IU/mL penicillin, 50 μg/mL streptomycin (MP Biomedicals), and in the presence of 10% fetal bovine serum (Biolot, Saint-Petersburg, Russia) in a 5% CO2 atmosphere. Since lipophilic nucleosides are soluble in DMSO, cells were grown in the presence of 1% DMSO in the control wells. After the formation of a 30–50% monolayer, the tested compounds were added to the medium, and the cell culture was monitored for 3 days. The values were normalized to their own control in each case. At least three independent experiments were carried out. The 50% cytotoxic concentration (CC50) was defined as the compound concentration that reduced the cell viability by 50% when compared to the untreated controls. The CC50 value was determined using OriginPro 8.6.0 software (OriginLab, Northampton, MA, USA). The measurements were carried out in three independent experiments.

The test system of another data set is HeLa cells. As to the kind of experiment: Effect of compounds on topotecan cytotoxicity (EZ4U test). The conditions noted are these: compound 10 μM in combination with Tpc. The class given is cell-based, human.
Source text: as §1
As already mentioned, we expected to increase the efficacy and/or reduce the dosage of Tpc with Tdp1 inhibitors. To do this, we studied the effect of nucleoside derivatives on Tpc cytotoxicity. […] We attribute this to the probable presence of protein targets other than Tdp1 in the cell.
as §2

Another data set addresses T1, human recombinant PARP1 (Homo sapiens, UniProt P09874).
T1 construct: made in house
As to the kind of experiment: PARP1 activity by inclusion of α-[32P]-NAD+ in poly(ADP-ribose). The conditions noted are these: in the presence of 1 mM compound; read-out: Residual activity of PARP1. The class given is biochemical. As for the experimental part: Since it has previously been shown that nucleoside derivatives can inhibit enzymes of the PARP family, we also checked whether the studied compounds were able to inhibit the enzymes PARP1 and PARP2. […] Thus, when using our compounds, one cannot expect side effects from PARP1/2.
Purified human recombinant PARP1/2 [65] and [^32P] NAD^+ [27] were prepared as described earlier. The activity of PARP1/2 was evaluated by the rate of incorporation of the radioactive label into the acid-insoluble reaction product—PAR as described previously.

A further data set deals with T2, recombinant human Tdp1 (Homo sapiens, UniProt Q9NUW8).
T2 construct: made in house
As to the kind of experiment: Steady-state kinetics of the Tdp1 reaction, type of inhibition (Vmax, KM). The class given is biochemical. The conditions noted are these: dependence of Vmax and KM on inhibitor concentration. As for the experimental part: Then, the values of the Vmax and KM parameters were calculated from the kinetic curves obtained. The conclusion about the type of inhibition was made based on the dependence type of the calculated parameters on the concentration of the inhibitor. […] Such inhibitors, supposedly, will be more specific inhibitors of Tdp1, because they will bind to the enzyme only in the presence of the enzyme-substrate complex. […] For this reason, this compound needs additional study of its inhibition mechanism by other methods.
To determine the kinetic parameters: apparent maximum rate of enzymatic reaction (Vmax), Michaelis constant (KM), and possible inhibition mechanism, steady-state kinetic experiments of Tdp1 enzymatic reaction were carried out at […] fixed concentrations of the substrate with various inhibitor concentrations. The standard reaction mixtures (200 μL) contained 56 nM, 96 nM, 163 nM, 277 nM, 470 nM or 800 nM oligonucleotide substrate, testable inhibitor, 1.5 nM recombinant human Tdp1 and reaction buffer components (50 mM Tris-HCl, pH 8.0, 50 mM NaCl, 7 mM β-mercaptoethanol). After the addition of the enzyme, the reaction mixtures were incubated at a constant temperature of 26 °C and measured in a POLARstar OPTIMA fluorimeter, BMG LABTECH, GmbH, to measure fluorescence every 55 s (Ex485/Em520 nm) during the linear phase (data from 0 to 8 minutes). The initial data (kinetic curves) were obtained in three independent experiments and statistically processed in the software OriginPro 8.6.0.

T2 sequence (Q9NUW8 whole entry): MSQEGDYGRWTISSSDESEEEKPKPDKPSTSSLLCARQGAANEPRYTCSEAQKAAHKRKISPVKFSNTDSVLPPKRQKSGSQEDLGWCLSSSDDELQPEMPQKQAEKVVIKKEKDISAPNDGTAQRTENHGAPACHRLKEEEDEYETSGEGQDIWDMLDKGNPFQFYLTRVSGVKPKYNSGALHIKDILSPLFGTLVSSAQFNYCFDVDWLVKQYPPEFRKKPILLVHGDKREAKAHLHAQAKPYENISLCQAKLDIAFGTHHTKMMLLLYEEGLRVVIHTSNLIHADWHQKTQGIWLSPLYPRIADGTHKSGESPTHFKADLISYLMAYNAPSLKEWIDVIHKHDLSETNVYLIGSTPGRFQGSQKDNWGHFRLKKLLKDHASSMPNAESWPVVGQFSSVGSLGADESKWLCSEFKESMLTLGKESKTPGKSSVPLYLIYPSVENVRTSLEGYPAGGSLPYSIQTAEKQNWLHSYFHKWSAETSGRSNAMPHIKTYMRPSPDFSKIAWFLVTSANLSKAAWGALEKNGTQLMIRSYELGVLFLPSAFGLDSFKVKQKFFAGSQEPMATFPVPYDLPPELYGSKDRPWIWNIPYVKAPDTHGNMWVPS
T1 sequence (P09874 whole entry): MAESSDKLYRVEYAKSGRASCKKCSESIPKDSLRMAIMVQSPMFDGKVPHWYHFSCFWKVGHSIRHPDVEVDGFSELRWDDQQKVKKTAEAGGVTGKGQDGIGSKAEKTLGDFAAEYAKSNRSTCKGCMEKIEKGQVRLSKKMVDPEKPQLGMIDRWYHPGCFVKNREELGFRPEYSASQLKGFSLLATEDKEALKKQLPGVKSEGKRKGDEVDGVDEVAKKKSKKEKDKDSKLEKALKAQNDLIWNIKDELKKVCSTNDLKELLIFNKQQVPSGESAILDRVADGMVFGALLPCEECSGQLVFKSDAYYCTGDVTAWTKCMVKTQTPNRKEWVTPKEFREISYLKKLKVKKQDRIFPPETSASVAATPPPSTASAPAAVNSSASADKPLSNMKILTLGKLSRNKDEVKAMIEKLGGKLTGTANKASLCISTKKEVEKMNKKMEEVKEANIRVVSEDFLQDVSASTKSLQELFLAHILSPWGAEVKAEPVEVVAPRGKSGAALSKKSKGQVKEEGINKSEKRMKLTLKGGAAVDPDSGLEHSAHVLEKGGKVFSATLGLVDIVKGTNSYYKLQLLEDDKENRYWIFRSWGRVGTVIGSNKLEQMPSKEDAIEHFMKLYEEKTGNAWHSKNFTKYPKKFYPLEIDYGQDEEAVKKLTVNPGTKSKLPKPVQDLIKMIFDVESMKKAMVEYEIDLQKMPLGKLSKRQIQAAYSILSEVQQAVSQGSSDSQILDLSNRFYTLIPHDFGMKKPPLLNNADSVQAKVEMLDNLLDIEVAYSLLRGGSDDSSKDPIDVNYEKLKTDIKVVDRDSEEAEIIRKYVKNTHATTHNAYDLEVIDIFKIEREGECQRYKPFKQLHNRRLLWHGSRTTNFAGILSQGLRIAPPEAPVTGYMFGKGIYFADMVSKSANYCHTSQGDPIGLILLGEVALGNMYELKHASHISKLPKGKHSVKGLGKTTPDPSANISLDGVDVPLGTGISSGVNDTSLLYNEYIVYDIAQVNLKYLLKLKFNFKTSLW

Turning to `O[C@@H]1[C@H](O)[C@@H](COC(c2ccccc2)(c2ccccc2)c2ccccc2)O[C@H]1n1cnc2c(NC(c3ccccc3)(c3ccccc3)c3ccccc3)ncnc21` [compound 5f], in data set [1], the cytotoxic concentration (CC50) at 3 days is over 100 µM. The “Enhancement of Tpc Cytotoxicity by 10 μM Compounds” value (shortened to “Enhancement of Tpc Cytotoxicity”) in the data set on HeLa cells turned out to be 1.7 Times. For the same compound, the remaining activity at 1000 µM at human recombinant PARP1 was found to be 100 ± 10%. Besides, the “Type of inhibition of Tdp1” value on recombinant human Tdp1 is given as “uncompetitive type of inhibition”.

As to `O=C(OC[C@H]1O[C@@H](n2cnc3c(Cl)nc(F)nc32)[C@H](OC(=O)c2ccccc2)[C@@H]1OC(=O)c1ccccc1)c1ccccc1` [compound 6c, 2-Fluoro-6-chloro-9-(2,3,5-tri-O-benzoyl-β-D-ribofuranosyl)purine], the CC50 at 3 days in data set [1] was 35 ± 20 µM. The “Enhancement of Tpc Cytotoxicity” value with HeLa cells came to 6.5 Times. Also, the remaining activity at 1000 µM at human recombinant PARP1 is 82 ± 17%. Further, on recombinant human Tdp1, the “Type of inhibition of Tdp1” value is “uncompetitive type of inhibition; also recorded: nonlinear dependence”.

Consider `O=C(OC[C@H]1O[C@@H](n2cnc3c(Cl)nc(Cl)nc32)[C@H](OC(=O)c2ccccc2)[C@@H]1OC(=O)c1ccccc1)c1ccccc1` [compound 6d, 2,6-dichloro-9-(2,3,5-tri-O-benzoyl-β-D-ribofuranosyl)purine], for which the CC50 at 3 days in data set [1] turned out to be 33 ± 15 µM. Further, the “Enhancement of Tpc Cytotoxicity” value with HeLa cells was determined as 4.8 Times. In addition, the remaining activity at 1000 µM on human recombinant PARP1 is 96 ± 12%. The “Type of inhibition of Tdp1” value at recombinant human Tdp1 is listed as “uncompetitive type of inhibition; also recorded: uncompetitive mechanism”.
